Source: the NIST ThermoML archive (doi:10.1021/je0498356)
± gives the expanded uncertainty stated by the source.

Conditions: Liquid

SMILES	Critical pressure [kPa]	Critical temperature [K]
O=C(O)CCCC(=O)O [1,5-pentanedioic acid]	4270 ± 200	840 ± 13
O=C(O)CCCCC(=O)O [1,6-hexanedioic acid]	3850 ± 150	841 ± 13
O=C(O)CCCCCC(=O)O [1,7-heptanedioic acid]	3280 ± 130	842 ± 13
O=C(O)CCCCCCCCCCCCC(=O)O [1,12-dodecanedicarboxylic acid]	1900 ± 80	862 ± 13
O=C(O)CCCCCCCCCCC(=O)O [1,12-dodecanedioic acid]	2150 ± 90	859 ± 13
O=C(O)CCC(=O)O [butanedioic acid]	6590 ± 300	851 ± 20

The next lines start with the values.

Critical pressure [kPa]	Critical temperature [K]	SMILES
2970 ± 120	843 ± 13	O=C(O)CCCCCCC(=O)O [1,8-octanedioic acid]
2720 ± 110	844 ± 13	O=C(O)CCCCCCCC(=O)O [1,9-nonanedioic acid]
2500 ± 100	845 ± 13	O=C(O)CCCCCCCCC(=O)O [1,10-decanedioic acid]
